Laboratory results from patent US20200071310A1, “N-ARYL PYRAZOLES AS NRF2 REGULATORS” (GLAXOSMITHKLINE INTELLECTUAL PROPERTY DEVELOPMENT LIMITED, priority 2016, published 2020).
Structures can show the parent of a compound that is named as a salt.

These compounds were tested against T1, Keap1 (321-609) Kelch domain / TAMRA-labeled NRF2 peptide (ETGE motif) (Homo sapiens, UniProt Q14145) (assay: NRF2-Keap1 FP Assay). Conditions: Keap1 (321-609) 20 nM, Tamra labeled peptide 8 nM.
T1 construct: the Kelch domain (321-609) of Keap1 is used
Assay type: binding
Excerpt: One model for the NRF2-Keap1 interaction is through two binding sites in the Neh2 domain on NRF2. The two sites are referred to as the DLG binding motif (latch domain, uM affinity) and the ETGE binding motif (hinge domain, nM affinity). The Keap1 protein consists of an N-terminal region (NTR), a broad complex, tramtrack, and brick a' brac domain (BTB), an intervening region (IVR), a double glycine repeat domain (DGR or Kelch), and a C-terminal region. The DLG and ETGE motifs of NRF2's Neh2 domain bind to the Kelch domain of Keap1 at different affinities. In the Keap1 Kelch fluorescence polarization (FP) assay, a TAMRA-labeled 16mer peptide (AFFAQLQLDEETGEFL) containing the ETGE motif of NRF2 and the Kelch domain (321-609) of Keap1 is used. The assay determines if a compound interferes with the binding between Keap1 […] and the TAMRA-labeled peptide. Binding of TAMRA-labeled NRF2 peptide to Keap1 (321-609) results in a high FP signal. If a compound interferes with the binding between the peptide and the protein, it will cause the assay signal to decrease. Thus, assay signal is inversely proportional to binding inhibition.
100 nl of 100× compound dose response curves (serial 3-fold dilutions) in DMSO were stamped using an Echo liquid handling system (Labcyte) into 384-well low volume black assay plates (Greiner, #784076), with DMSO in columns 6 and 18. The top concentration of compound was located in columns 1 and 13. Keap1 (321-609) was diluted to 40 nM (2×) in 1× assay buffer (50 mM Tris, pH 8.0, 100 mM NaCl, 5 mM MgCl2, 1 mM DTT, 2 mM CHAPS, and 0.005% BSA) and 5 ul was added using a Multidrop Combi (Thermo Electron Corporation) equipped with a metal tip dispenser to all wells of the compound plate, except column 18. Column 18 received only 5 ul of assay buffer. Immediately, 5 uL of 16 nM (2×) of Tamra labeled peptide (AFFAQLQLDEETGEFL, 21st Century Biochemicals) was added to all wells of the plate. The plates were spun at 500 rpm for 1 min, incubated for 1 hr at room temperature, and read on an Analyst GT (Molecular Devices) equipped with excitation (530/25 nm) and emission (580/10 nm) filters designed for Tamra probes. A 561 nm dichroic mirror was also used in the Analyst. The final assay concentrations of Keap1l (321-609) and Tamra labeled peptide were 20 nM and 8 nM, respectively. Fluorescence measurements, represented as mP, were used in the transformation of the data. Compound activity was calculated based on percent inhibition, normalized against controls in the assay (Control 1 contains the Tamra peptide and Keap1 (321-609) together (0% response) and control 2 contains the Tamra peptide alone (100% response)). Data analysis was handled using the software package Abase XE (Surrey, United Kingdom. The % inhibition values were calculated by the equation:
100−(100*((compound response−average control 2)/(average control 1−average control2))).
For calculation of pIC50s, Abase XE used a four parameter equation.
IC50s<1 nM (+++++), IC50s 1 nM-10 nM (++++), IC50s 10-100 nM (+++), IC50s 100 nM-1 μM (++), IC50s 1-10 μM (+), IC50s>10 μM (−), or were not determined (ND).

T1 sequence (Q14145 321-609): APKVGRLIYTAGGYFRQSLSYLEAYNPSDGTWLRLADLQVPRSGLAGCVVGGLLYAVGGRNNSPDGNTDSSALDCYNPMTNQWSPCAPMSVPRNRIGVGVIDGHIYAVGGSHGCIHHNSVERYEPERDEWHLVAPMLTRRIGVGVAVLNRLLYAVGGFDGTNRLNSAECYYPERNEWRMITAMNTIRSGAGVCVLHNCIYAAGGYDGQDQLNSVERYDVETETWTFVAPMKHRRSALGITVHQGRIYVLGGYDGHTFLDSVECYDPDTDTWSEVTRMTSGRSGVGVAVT

`C[C@H]1Cc2ccc(Br)cc2S(=O)(=O)N(Cc2cccc(-n3ncc(C(=O)O)c3[C@@H]3C[C@H]3c3cn(C)nn3)c2)C1` (racemic) [Example 17, 1-(3-((8-bromo-4-methyl-1,1-dioxido-4,5-dihydrobenzo[f][1,2]thiazepin-2(3H)-yl)methyl)phenyl)-5-((trans)-2-(1-methyl-1H-1,2,3-triazol-4-yl)cyclopropyl)-1H-pyrazole-4-carboxylic acid] and `C[C@@H]1Cc2cc(C(F)(F)F)ccc2S(=O)(=O)N(Cc2cccc(-n3ncc(C(=O)O)c3[C@@H]3C[C@H]3c3cn(C)nn3)c2)C1` (racemic) [Example 18, 1-(3-((4-methyl-1,1-dioxido-7-(trifluoromethyl)-4,5-dihydro-benzo[f][1,2]thiazepin-2(3H)-yl)methyl)phenyl)-5-((trans)-2-(1-methyl-1H-1,2,3-triazol-4-yl)cyclopropyl)-1H-pyrazole-4-carboxylic acid] fall in the same range of EC50: 0.001 to 0.01 µM for the first, 0.001 to 0.01 µM for the second.

`CN(Cc1cccc(-n2ncc(C(=O)O)c2[C@@H]2C[C@H]2c2cn(C)nn2)c1)S(=O)(=O)c1cccc2cccnc12` (racemic) [Example 51, 5-((trans)-2-(1-methyl-1H-1,2,3-triazol-4-yl)cyclopropyl)-1-(3-((N-methylquinoline-8-sulfonamido)methyl)phenyl)-1H-pyrazole-4-carboxylic acid] and `COc1ccccc1S(=O)(=O)N(C)Cc1cccc(-n2ncc(C(=O)O)c2[C@@H]2C[C@H]2c2cn(C)nn2)c1` (racemic) [Example 47, 1-(3-((2-methoxy-N-methylphenylsulfonamido)methyl)phenyl)-5-((trans)-2-(1-methyl-1H-1,2,3-triazol-4-yl)cyclopropyl)-1H-pyrazole-4-carboxylic acid] fall in the same range of EC50: 0.1 to 1 µM for the first, 0.1 to 1 µM for the second.

Compared with `CC[C@@H]1CN(Cc2cc(-n3ncc(C(=O)O)c3C3C[C@H]3c3cn(C)nn3)ccc2C)S(=O)(=O)c2ccccc2O1` (stereo partly drawn) [Example 25], `CC[C@@H]1CN(Cc2cccc(-n3ncc(C(=O)O)c3[C@@H]3C[C@H]3c3cnn(C)c3)c2)S(=O)(=O)c2ccccc2O1` [Example 31, 1-(3-(((R)-4-ethyl-1,1-dioxido-3,4-dihydro-2H-benzo[b][1,4,5]oxathiazepin-2-yl)methyl)-phenyl)-5-(trans-2-(1-methyl-1H-pyrazol-4-yl)cyclopropyl)-1H-pyrazole-4-carboxylic acid] is higher in EC50: 0.001 to 0.01 µM for the first, 0.1 to 1 µM for the second.

`CC[C@H]1Cc2ccc(C(F)(F)F)cc2S(=O)(=O)N(Cc2cccc(-n3ncc(C(=O)O)c3[C@@H]3C[C@H]3c3cn(C)nn3)c2)C1` [Example 20, 1-(3-(((S)-4-ethyl-1,1-dioxido-8-(trifluoromethyl)-4,5-dihydrobenzo[f][1,2]thiazepin-2(3H)-yl)methyl)phenyl)-5-((1R,2R)-2-(1-methyl-1H-1,2,3-triazol-4-yl)cyclopropyl)-1H-pyrazole-4-carboxylic acid] and `CCCC[C@H]1Cc2ccc(C(F)(F)F)cc2S(=O)(=O)N(Cc2cccc(-n3ncc(C(=O)O)c3[C@@H]3C[C@H]3c3cn(C)nn3)c2)C1` [Example 21, 1-(3-(((S)-4-butyl-1,1-dioxido-8-(trifluoromethyl)-4,5-dihydrobenzo[f][1,2]thiazepin-2(3H)-yl)methyl)phenyl)-5-((1R,2R)-2-(1-methyl-1H-1,2,3-triazol-4-yl)cyclopropyl)-1H-pyrazole-4-carboxylic acid] cannot be ordered by EC50: less than 0.001 µM for the first, less than 0.001 µM for the second.

First: CCOc1ccccc1S(=O)(=O)N(C)Cc1cccc(-n2ncc(C(=O)O)c2[C@@H]2C[C@H]2c2cn(C)nn2)c1 (racemic) [Example 45, 1-(3-((2-ethoxy-N-methylphenylsulfonamido)methyl)phenyl)-5-((trans)-2-(1-methyl-1H-1,2,3-triazol-4-yl)cyclopropyl)-1H-pyrazole-4-carboxylic acid]
Second: CN(Cc1cccc(-n2ncc(C(=O)O)c2[C@@H]2C[C@H]2c2cn(C)nn2)c1)S(=O)(=O)c1ccccc1Oc1ccccc1 (relative stereo) [Example 38, 5-((trans)-2-(1-methyl-1H-1,2,3-triazol-4-yl)cyclo-propyl)-1-(3-((N-methyl-2-phenoxyphenyl-sulfonamido)-methyl)phenyl)-1H-pyrazole-4-carboxylic acid]
The EC50 of the first is higher: 0.1 to 1 µM for the first, 0.01 to 0.1 µM for the second.

Compared with `COc1ccccc1S(=O)(=O)N(C)C1CCc2ccc(-n3ncc(C(=O)O)c3[C@@H]3C[C@H]3c3cn(C)nn3)cc21` (stereo partly drawn) [Example 27, 1-(3-(2-methoxy-N-methylphenylsulfonamido)-2,3-dihydro-1H-inden-5-yl)-5-((1R,2R)-2-(1-methyl-1H-1,2,3-triazol-4-yl)cyclopropyl)-1H-pyrazole-4-carboxylic acid], `CCCCCCN(Cc1cccc(-n2ncc(C(=O)O)c2[C@@H]2C[C@H]2c2cn(C)nn2)c1)S(=O)(=O)c1ccccc1C` (racemic) [Example 37, 1-(3-((N-hexyl-2-methylphenylsulfonamido)methyl)phenyl)-5-((trans)-2-(1-methyl-1H-1,2,3-triazol-4-yl)cyclo-propyl)-1H-pyrazole-4-carboxylic acid] is lower in EC50: 1 to 10 µM for the first, 0.01 to 0.1 µM for the second. The second is the more potent here.

Compared with `CC[C@@H]1CN(Cc2cccc(-n3ncc(C(=O)O)c3[C@@H]3C[C@H]3c3cn(C)nn3)c2)Cc2ccccc2O1` (racemic) [Example 14], `Cn1cc([C@@H]2C[C@H]2c2c(C(=O)O)cnn2-c2cccc(CN3Cc4ccccc4OC(C)(C)C3)c2)nn1` (racemic) [Example 8] is lower in EC50: 0.1 to 1 µM for the first, 0.01 to 0.1 µM for the second.

First: C[C@H]1Cc2cc(C(F)(F)F)ccc2S(=O)(=O)N(Cc2cccc(-n3ncc(C(=O)O)c3[C@@H]3C[C@H]3c3cn(C)nn3)c2)C1 (racemic) [Example 19, 1-(3-((4-methyl-1,1-dioxido-7-(trifluoromethyl)-4,5-dihydro-benzo[f][1,2]thiazepin-2(3H)-yl)methyl)phenyl)-5-((trans)-2-(1-methyl-1H-1,2,3-triazol-4-yl)cyclopropyl)-1H-pyrazole-4-carboxylic acid]
Second: C[C@H]1Cc2ccc(C(F)(F)F)cc2S(=O)(=O)N([C@H]2CCc3c2cccc3-n2ncc(C(=O)O)c2[C@@H]2C[C@H]2c2cn(C)nn2)C1 [Example 26a, 1-((S)-1-((S)-4-Methyl-1,1-dioxido-8-(trifluoromethyl)-4,5-dihydrobenzo[f][1,2]thiazepin-2(3H)-yl)-2,3-dihydro-1H-inden-4-yl)-5-((1R,2R)-2-(1-methyl-1H-1,2,3-triazol-4-yl)cyclopropyl)-1H-pyrazole-4-carboxylic acid]
The EC50 of the first is higher: 0.1 to 1 µM for the first, 0.01 to 0.1 µM for the second.

First: CCC1c2ccccc2OC(C)(C)CN1Cc1cccc(-n2ncc(C(=O)O)c2[C@@H]2C[C@H]2c2cn(C)nn2)c1 (stereo partly drawn) [Example 12]
Second: CCOc1ccc(Br)cc1CN(C)Cc1cccc(-n2ncc(C(=O)O)c2[C@@H]2C[C@H]2c2cn(C)nn2)c1 (racemic) [Example 54, 1-(3-(((5-bromo-2-ethoxybenzyl)(methyl)amino)methyl)phenyl)-5-((trans)-2-(1-methyl-1H-1,2,3-triazol-4-yl)cyclopropyl)-1H-pyrazole-4-carboxylic acid trifluoroacetate]
The EC50 of the first is higher: 1 to 10 µM for the first, 0.1 to 1 µM for the second. The second is the more potent here.

Compared with `CC[C@@H]1CN(Cc2cccc(-n3ncc(C(=O)O)c3[C@@H]3C[C@H]3c3cn(CC(F)(F)F)nn3)c2)S(=O)(=O)c2ccccc2O1` [Example 29], `CN(Cc1cccc(-n2ncc(C(=O)O)c2[C@@H]2C[C@H]2c2cn(C)nn2)c1)S(=O)(=O)c1cccc(Oc2ccccc2)c1` (racemic) [Example 35, 5-((trans)-2-(1-methyl-1H-1,2,3-triazol-4-yl)cyclo-propyl)-1-(3-((N-methyl-3-phenoxy-phenyl-sulfonamido)-methyl)phenyl)-1H-pyrazole-4-carboxylic acid] is higher in EC50: 0.001 to 0.01 µM for the first, 0.01 to 0.1 µM for the second.

`CCCCCCN(Cc1cccc(-n2ncc(C(=O)O)c2[C@@H]2C[C@H]2c2cnn(C)c2)c1)S(=O)(=O)c1ccccc1C` (racemic) [Example 56] showed an EC50 of 1 to 10 µM.
